Where two headings read alike, the source gives them in different places.
Assays:
MycN = target: T1, MycN (Homo sapiens, UniProt P04198); assay: Degradation of MycN protein in SK-N-BE(2) cells (JESS/Western blot); format: cell-based; settings: for Dmax at 6 µM: read-out: % Degradation of MycN (SKNBE2) 24 h, 6 μM; for Dmax at 0.5 µM: read-out: % Degradation of MycN (SKNBE2) 24 h, 0.5 μM; for Dmax at 1 µM: read-out: % Degradation of MycN (SKNBE2) 24 h, 1 μM; for Dmax at 3 µM: read-out: % Degradation of MycN (SKNBE2) 24 h, 3 μM
T1 construct: endogenous in cells; host or cells: SK-N-BE(2)
T1 sequence (P04198 1-464): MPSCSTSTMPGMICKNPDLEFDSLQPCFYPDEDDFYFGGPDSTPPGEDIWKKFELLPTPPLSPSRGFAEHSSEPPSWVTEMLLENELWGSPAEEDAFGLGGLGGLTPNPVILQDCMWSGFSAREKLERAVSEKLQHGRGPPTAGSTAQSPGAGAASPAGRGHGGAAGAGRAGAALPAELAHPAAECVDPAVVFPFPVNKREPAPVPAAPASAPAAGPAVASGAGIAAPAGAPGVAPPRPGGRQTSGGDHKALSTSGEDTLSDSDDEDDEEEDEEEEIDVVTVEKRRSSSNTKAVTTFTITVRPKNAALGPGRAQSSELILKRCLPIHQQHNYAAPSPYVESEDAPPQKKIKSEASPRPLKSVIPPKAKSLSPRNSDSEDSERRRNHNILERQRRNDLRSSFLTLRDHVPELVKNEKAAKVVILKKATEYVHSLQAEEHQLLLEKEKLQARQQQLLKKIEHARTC
Method: (§1) For L363 cells (suspension), 1E6 cells were plated into each well of a 6 well plate. For SK—N-BE(2) cells (adherent), 5E5 cells were plated into each well of a 6 well dish. […] All compounds were diluted to 10 mM in DMSO. Cells were treated with the compound for 24 hrs, then for both cell types, media containing cells were removed from wells into a 15 ml centrifuge tube, and remaining adherent SK—N-BE(2) cells were also scraped from the wells into the appropriate tubes. Tubes were centrifuged, cells were washed with PBS then re-centrifuged to pellet cells. A RIPA buffer cocktail was added to the cells on ice for 5 mins. Cell lysates were clarified by centrifugation and stored at −80 degrees until required. BCA assay was performed on each lysate to determine the protein concentration. For validation studies of antibodies, lysates and antibodies were used at a number of concentrations (Lysates: 2, 1, 0.2 mg/ml; Antibodies: 1 in 50, 1 in 200 dilution). Once an appropriate lysate concentration and antibody concentration was determined, samples were screened in the JESS technology (Protein Simple, San Jose, CA—https://www.proteinsimple.com/jess.html). Target protein antibodies (n-myc and c-myc) were detected in the chemiluminescence channel and loading controls (tubulin and GAPDH) were detected using a Near Infra Red (NIR) labeled secondary antibody. For SK—N-EB2 adherent cells, 5E5 cells in 1.9 mls media were plated into 6 well dishes and incubated for 24 hrs. […] Cells were scrapped off the plate, centrifuged, washed with PBS, centrifuged, then a RIPA buffer cocktail added to the cells (100 ul), centrifuged and stored at −80 for later analysis. For L363 suspension cells, 1E6 cells were plated into 24 well dishes (950 ul media) and incubated for 24 hrs. […] Cells were aspirated into tubes, centrifuged, washed with PBS, centrifuged, then a RIPA buffer cocktail added to the cells (100 ul), centrifuged and stored at −80 for later analysis. For Western blot, a BCA (total protein) assay was run on all samples, these were then run in batches of 5 compounds plus control (DMSO) on each Western blot run—n-myc and c-myc were run in separate experiments in the chemiluminescence channel. Both tubulin and GAPDH were run as loading controls in all lanes in the near infra red channel.

MycC = target: T2, MycC (Homo sapiens, UniProt P01106); assay: Degradation of MycC protein in L363 cells (JESS/Western blot); format: cell-based; settings: L-363 cells, 24 h; for Dmax at 0.5 µM: read-out: % Degradation of MycC (L-363) 24 h, 0.5 μM; for Dmax at 1 µM: read-out: % Degradation of MycC (L-363) 24 h, 1 μM; for Dmax at 3 µM: read-out: % Degradation of MycC (L-363) 24 h, 3 μM; for Dmax at 6 µM: read-out: % Degradation of MycC (L-363) 24 h, 6 μM
T2 construct: endogenous in cells; host or cells: L363
T2 sequence (P01106 whole entry): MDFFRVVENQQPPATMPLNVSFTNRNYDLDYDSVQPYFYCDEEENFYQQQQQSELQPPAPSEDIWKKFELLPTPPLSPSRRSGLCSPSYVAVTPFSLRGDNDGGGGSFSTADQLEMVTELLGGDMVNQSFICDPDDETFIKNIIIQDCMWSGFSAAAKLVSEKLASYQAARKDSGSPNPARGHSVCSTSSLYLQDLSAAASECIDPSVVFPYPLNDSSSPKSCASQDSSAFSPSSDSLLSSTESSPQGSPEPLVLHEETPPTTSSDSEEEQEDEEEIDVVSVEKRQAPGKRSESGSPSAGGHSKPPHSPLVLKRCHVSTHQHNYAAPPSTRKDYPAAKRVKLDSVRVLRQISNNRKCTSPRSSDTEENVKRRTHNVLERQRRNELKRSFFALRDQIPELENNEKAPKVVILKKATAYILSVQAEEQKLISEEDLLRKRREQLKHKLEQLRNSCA
Method: as §1

Row | SMILES | Dmax at 6 µM (MycN; SKNBE2 cells, 24 h, 6 μM) | Dmax at 0.5 µM (MycC) | Dmax at 1 µM (MycC) | Dmax at 3 µM (MycC) | Dmax at 6 µM (MycC) | Dmax at 0.5 µM (MycN; SKNBE2 cells, 24 h, 0.5 μM) | Dmax at 1 µM (MycN; SKNBE2 cells, 24 h, 1 μM) | Dmax at 3 µM (MycN; SKNBE2 cells, 24 h, 3 μM) | Dmax at 0.5 µM (MycN; SKNBE2, 24 h) | Dmax at 1 µM (MycN; SKNBE2, 24 h) | Dmax at 3 µM (MycN; SKNBE2, 24 h) | Dmax at 6 µM (MycN; SKNBE2, 24 h)
1 | c1cc(Nc2cc(C3CC3)[nH]n2)nc(NC2CC3(CNC3)C2)n1 [Compound 28, N^4-(5-cyclopropyl-1H-pyrazol-3-yl)-N^2-(2-azaspiro[3.3]heptan-6-yl)pyrimidine-2,4-diamine] | < 20% | < 20% | < 20% | < 20% | 20 to 49% |  |  |  |  |  |  | 
2 | Cn1cc(C(=O)N2CCC(Nc3nccc(Nc4cc(C5CC5)[nH]n4)n3)CC2)nn1 [Compound 37, (4-((4-((5-Cyclopropyl-1H-pyrazol-3-yl)amino)pyrimidin-2-yl)amino)piperidin-1-yl)(1-methyl-1H-1,2,3-triazol-4-yl)methanone] | 20 to 49% |  |  | 20 to 49% | < 20% |  | < 20% | 20 to 49% |  |  |  | 
3 | CN1CC[C@@H](Nc2nccc(Nc3cc(C4CC4)[nH]n3)n2)[C@@H](F)C1 [Compound 42, N4-(5-Cyclopropyl-1H-pyrazol-3-yl)-N2-[(3S,4R)-3-fluoro-1-methyl-4-piperidyl]pyrimidine-2,4-diamine] | 50 to 79% |  |  |  |  |  | 20 to 49% | 20 to 49% |  |  |  | 
4 | CN(CC12CNC(C1)C2)c1nccc(Nc2cc(C3CC3)[nH]n2)n1 [Compound 2, N^2-((2-Azabicyclo[2.1.1]hexan-4-yl)methyl)-N^4-(5-cyclopropyl-1H-pyrazol-3-yl)-N^2-methylpyrimidine-2,4-diamine] | 50 to 79% |  |  |  |  | 20 to 49% | < 20% | 20 to 49% |  |  |  | 
5 | c1cc(Nc2cc(C3CC3)[nH]n2)nc(NCC23CNC(C2)C3)n1 [Compound 3, N^2-((2-Azabicyclo[2.1.1]hexan-4-yl)methyl)-N^4-(5-cyclopropyl-1H-pyrazol-3-yl)pyrimidine-2,4-diamine] |  |  |  |  |  |  |  |  | < 20% | < 20% | < 20% | 20 to 49%

The next lines start with results.

Row | Dmax at 6 µM (MycN; SKNBE2 cells, 24 h, 6 μM) | Dmax at 0.5 µM (MycC) | Dmax at 1 µM (MycC) | Dmax at 3 µM (MycC) | Dmax at 6 µM (MycC) | Dmax at 0.5 µM (MycN; SKNBE2 cells, 24 h, 0.5 μM) | Dmax at 1 µM (MycN; SKNBE2 cells, 24 h, 1 μM) | Dmax at 3 µM (MycN; SKNBE2 cells, 24 h, 3 μM) | SMILES | Dmax at 0.5 µM (MycN; SKNBE2, 24 h) | Dmax at 1 µM (MycN; SKNBE2, 24 h) | Dmax at 3 µM (MycN; SKNBE2, 24 h) | Dmax at 6 µM (MycN; SKNBE2, 24 h)
6 | 80 to 100% |  |  |  | 80 to 100% | < 20% | < 20% | 20 to 49% | F[C@H]1CNCC[C@H]1Nc1nccc(Nc2cc(C3CC3)[nH]n2)n1 [Compound 41, N4-(5-Cyclopropyl-1H-pyrazol-3-yl)-N2-[(3S,4R)-3-fluoro-4-piperidyl]pyrimidine-2,4-diamine] |  |  |  | 
7 | 80 to 100% | 20 to 49% | 80 to 100% | 80 to 100% | 80 to 100% | 20 to 49% | 50 to 79% | 80 to 100% | c1cc(Nc2cc(C3CC3)[nH]n2)nc(NC2CCOCC2)n1 [Compound 65, N4-(5-Cyclopropyl-1H-pyrazol-3-yl)-N2-tetrahydropyran-4-yl-pyrimidine-2,4-diamine] |  |  |  | 
8 | 80 to 100% | 20 to 49% | 50 to 79% | 20 to 49% | 50 to 79% | 20 to 49% | 50 to 79% | 80 to 100% | CN1CC2(CC(Nc3nccc(Nc4cc(C5CCCC5)[nH]n4)n3)C2)C1 [Compound 38, N^4-(5-cyclopentyl-1H-pyrazol-3-yl)-N^2-(2-methyl-2-azaspiro[3.3]heptan-6-yl)pyrimidine-2,4-diamine] |  |  |  | 
9 | 20 to 49% |  |  | < 20% | < 20% | 20 to 49% | < 20% | 20 to 49% | CN1CCC(C(=O)Nc2nccc(Nc3cc(C4CC4)[nH]n3)n2)CC1 [Compound 35, N-(4-((5-cyclopropyl-1H-pyrazol-3-yl)amino)pyrimidin-2-yl)-1-methylpiperidine-4-carboxamide] |  |  |  | 
10 | 80 to 100% | 50 to 79% | 50 to 79% | 80 to 100% | 80 to 100% |  | 50 to 79% | 80 to 100% | c1cc(Nc2cc(C3CCCC3)[nH]n2)nc(NC2CCNCC2)n1 [Compound 32, N^4-(5-cyclopentyl-1H-pyrazol-3-yl)-N^2-(piperidin-4-yl)pyrimidine-2,4-diamine] |  |  |  | 

Reference: patent US20250177393A1, “MODULATORS OF MYC FAMILY PROTO-ONCOGENE PROTEIN” (Nalo Therapeutics, priority 2022, published 2025)
